Where “and” joins values, the source holds several entries; their conditions need not be identical. Equal entries are not always repeated. A value given as a limit tells only on which side of the number the result lay.

In one data set the test system is U-87MG cells. Put plainly: Ru cellular uptake by ICP-MS. Type of data set: in vitro ADME. The note with it: 10 μM; for Ru cellular uptake: dark. The source says: The cellular accumulation of Ru^2+ can provide additional information about how differences in anticancer efficacy may relate to the amount of the Ru prodrug in the cell before light activation. For instance, low uptake often leads to limited cytotoxicity due to limited access to the drug target. […] Similar results have been observed in A549 lung cancer cells previously.[56] […] For unknown reasons, it appears that the amine bridge in the i-diqa ligand facilitates the uptake of ruthenium compound [3](PF6)2.
Materials: 65% nitric acid (Suprapur, Merck) was used in the sample digestion process, while diluted 1% nitric acid (v/v) was employed as a carrying solution throughout the ICP measurements. For preparation of calibration and internal standards, National Institute of Standards and Technology (NIST)-traceable 1000 mg/L elemental standards were used (TraceCERT, Fluka). Approximately 18 MΩ cm^–1 water (Milli-Q) was employed in all sample preparation and analysis steps.
Instrumentation: Calibration standards were prepared in a Secuflow fume hood (SCALA) to prevent contamination by atmospheric particulates. The standard samples and measurement samples were analyzed for trace elements using the NexION 2000 (PerkinElmer) ICP-MS instrument equipped with a concentric glass nebulizer and a Peltier-cooled glass spray chamber. An SC2 DX autosampler (PerkinElmer) was connected to ICP-MS for sample introduction. Syngistix software for ICP-MS (v.2.5, PerkinElmer) was used for all data recording and processing. Five trace elemental calibration standards for ICP-MS analysis were prepared using NIST-traceable 1000 mg/L Ru standards: 0, 1, 5, 20, and 100 μg/L. Samples were analyzed without dilution in the original delivery containers to minimize the possibility of contamination. Here, 10 μg/L Rh and In were used as internal standards. To check the calibration, samples were analyzed with a blank measurement and a repeat measurement with one of the calibration standards.
Sample preparation: 1 mL of U-87MG cells were seeded in 12-well plates (Greiner, No. 665180; 400.000 cells per well). […] Afterward, the cells were trypsined, collected, and centrifuged. The resulting cell pellet was dissolved in 1 mL of PBS and counted via a BioRad TC20 automated cell counter. Afterward, the solution was centrifuged and washed again with PBS with subsequent centrifuging. This washing step was repeated twice. The resulting cell pellet was digested in 0.5 mL of 65% HNO3 overnight in a hot oven (90 °C). The solution was diluted with Milli-Q water to 10 mL, and the Ru content [ppb] was measured by ICP-MS.

The test system of data set [1] is U-87MG glioblastoma cells. Put plainly: Cytotoxicity, SRB end-point assay, dark or green light. The note with it: read-out: EC50,D, kept in the dark, 24 h + 48 h incubation, normoxic (21% O2).
The test system of data set [2] is SH-SY5Y cells. The description is as above. Type of data set: cell-based. The note with it: for EC50: kept in the dark, SRB, normoxic (21% O2).
Data set [3] has as its system SH-SY5Y cells. Put plainly: Intracellular Ca content by ICP-MS, dark or green light. Particulars: for Ca uptake, Dark: kept in the dark. Format: cell-based. Here is the method:
Six hours after compound addition, the cells were irradiated with green light or kept in the dark. Intracellular Ca^2+ levels were then assessed by ICP-MS 24 h after light activation. The NMDA and α-amino-3-hydroxy-5-methyl-4-isoxazole propionic acid (AMPA) receptors being glutamate-gated cation channels allow for an increase of calcium permeability of the neuron membrane; we also used L-glutamic acid (GA, 10 μM), a known NMDA and AMPA activator, as positive control in this assay.
1 mL of SH-SY5Y cells were seeded in 12-well plates (Greiner, No. 665180; 500.000 cells per well). […] After an additional 24 h of incubation, the cells were trypsined, collected, and centrifuged. The resulting cell pellet was dissolved in 1 mL of PBS and counted via a BioRad TC20 automated cell counter. Afterward, the solution was centrifuged and washed again with PBS with subsequent centrifuging two more times. The resulting cell pellet was digested in 0.5 mL of HNO3 overnight in a hot oven (90 °C). The solution was diluted with Milli-Q water to 10 mL, and the Ru and Ca content [ppb] was measured via ICP-MS.

A short description of data set [4]: Stability in the dark in the presence of L-glutathione (UV-vis). Format: physicochemical. Particulars: water, 37 °C, 500 μM L-glutathione, spectra after 2 and 24 h. How it is done: The synthesis and characterization of all three complexes have been described earlier and can be found in refs ([56]) and ([57]). In water or OptiMEM cell medium, the complexes were also previously found to be stable in the dark for at least 24 h at 37 °C. Upon blue or green light irradiation (λ = 452 or 517 nm), they are activated by photosubstitution of the thioether ligand to afford the aqua ruthenium complex and the free thioether ligand.[56] […] The UV–vis spectra were then recorded after 2 and 24 h separately. […] Additionally, we could not observe any color change, which is typical when one of the ligands is exchanged against another one.
UV–vis spectroscopy experiments were performed on a Cary 60 Varian spectrometer equipped with a temperature control set to 310 K and a magnetic stirrer. The measurements were performed in a quartz cuvette containing 3 mL of solution. […] Then, the UV–vis spectrum was recorded without the presence of GSH. After 4 min, GSH was added (0.5 mM) and UV–vis spectra were recorded directly after and after 2 and 24 h, while the vial was kept in the dark and at 37 °C.

Consider `CSCCO.F[P-](F)(F)(F)(F)F.F[P-](F)(F)(F)(F)F.[Ru+2].c1ccc(-c2cccc(-c3ccccn3)n2)nc1.c1ccc2cc(-c3cc4ccccc4cn3)ncc2c1` [[2](PF6)2], for which the Uptake in % with U-87MG cells (6 h) was 0.8% and 0.82%; in the data set with U-87MG cells (24 h), 1.5%. For the same molecule, the Ru cellular uptake is 0.5 ng Ru/mio. cells and 0.54 ± 0.08 ng Ru/mio. cells with U-87MG cells (6 h incubation); 0.82 ± 0.09 ng Ru/mio. cells with U-87MG cells (24 h incubation). In addition, the EC50 is 19 µM and 19.4 µM in data set [1]; more than 100 µM with SH-SY5Y cells [2]. For the same molecule, the “concentration required to block cell growth” value in the data set on SH-SY5Y cells [2] (in the dark) is more than 40 µM. Besides, the “Ca uptake, Dark” value in the data set with SH-SY5Y cells [3] (20 μM) is 279.12 ± 56 ng Ca/mio. cells and 279 ng Ca/mio. cells. For the same molecule, the “stability in the dark with GSH (UV-vis, in words)” value in data set [4] is listed as “no isosbestic points suggesting ligand exchange were observed”.

Take `CSCCO.F[P-](F)(F)(F)(F)F.F[P-](F)(F)(F)(F)F.[Ru+2].c1ccc(-c2cccc(-c3ccccn3)n2)nc1.c1ccc2cc(Nc3cc4ccccc4cn3)ncc2c1` [[3](PF6)2]: the Uptake in % is 12.4% with U-87MG cells (6 h) and approximately 11.5% with U-87MG cells (24 h). Besides, the Ru cellular uptake with U-87MG cells (6 h incubation) was 2.1 ng Ru/mio. cells and 2.14 ± 0.49 ng Ru/mio. cells; with U-87MG cells (24 h incubation) it was 1.98 ng Ru/mio. cells and 1.98 ± 0.33 ng Ru/mio. cells. Further, the concentration giving a half-maximal response (EC50) in data set [1] amounted to 37 µM; in the data set with SH-SY5Y cells [2] it was 34.2 µM. Besides, the “increase of intracellular Ca^2+ content after light irradiation” value in the data set with SH-SY5Y cells [3] (10 μM, green light versus dark) was found to be 3 fold. In the data set on SH-SY5Y cells [3] (10 μM), the “Ca uptake, Dark” value is 163.37 ± 93 ng Ca/mio. cells and 163 ng Ca/mio. cells. The “stability in the dark with GSH (UV-vis, in words)” value in data set [4] is “no isosbestic points suggesting ligand exchange were observed”.

For the origin of these results see article PMC11833736 (ACS Pharmacology & Translational Science, 2025).
